In US10550102B2, “Indane and indoline derivatives and the use thereof as soluble guanylate cyclase activators” (NOVARTIS AG, priority 2014, dated 2020):

Target: soluble guanylate cyclase (human GUCYA3 and GUCYB3) overexpressed in CHO cells (Homo sapiens (Human), UniProt Q02108+Q02153)
Assay: CHO cellular assay (cGMP production, Cisbio cGMP HTRF kit)
Type: cell-based
Conditions: CHO GUCY clone 8E10, cGMP production, assay buffer with 1 mM IBMX and 20 uM ODQ, 1 h room temperature; minimum quantification limit 0.5 nM (listed 0.5 nM means ≤0.5 nM); read-out: EC50
In short: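 Stable CHO-K1 clone 8E10 expressing human sGC (GUCYA3/GUCYB3), 3000 cells/well, exposed 1 h at room temperature to activators in HBSS, 0.1% BSA, 1 mM IBMX, 20 uM ODQ, 0.5% DMSO final. cGMP was measured by HTRF and interpolated from a standard curve. EC50 came from a 4-parameter sigmoidal fit.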

soluble guanylate cyclase (human GUCYA3 and GUCYB3) overexpressed in CHO cells, sequence (Q02108 whole entry partner): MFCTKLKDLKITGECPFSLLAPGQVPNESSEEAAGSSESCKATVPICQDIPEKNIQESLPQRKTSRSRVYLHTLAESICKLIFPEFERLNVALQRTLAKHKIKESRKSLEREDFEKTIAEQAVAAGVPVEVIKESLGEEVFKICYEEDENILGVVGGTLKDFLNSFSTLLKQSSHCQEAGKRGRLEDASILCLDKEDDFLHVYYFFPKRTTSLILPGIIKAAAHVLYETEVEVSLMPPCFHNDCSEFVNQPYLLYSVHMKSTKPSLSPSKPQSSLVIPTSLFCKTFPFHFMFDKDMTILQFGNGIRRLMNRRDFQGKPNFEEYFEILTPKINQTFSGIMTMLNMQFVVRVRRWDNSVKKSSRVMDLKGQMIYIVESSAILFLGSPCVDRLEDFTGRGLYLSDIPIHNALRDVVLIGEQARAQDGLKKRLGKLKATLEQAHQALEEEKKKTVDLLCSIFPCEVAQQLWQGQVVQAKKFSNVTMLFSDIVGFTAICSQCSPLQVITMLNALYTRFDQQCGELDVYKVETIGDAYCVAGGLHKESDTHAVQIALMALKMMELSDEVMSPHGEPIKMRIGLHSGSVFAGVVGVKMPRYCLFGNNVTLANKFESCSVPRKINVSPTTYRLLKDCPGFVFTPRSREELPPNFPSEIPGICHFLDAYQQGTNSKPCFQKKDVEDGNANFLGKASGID
soluble guanylate cyclase (human GUCYA3 and GUCYB3) overexpressed in CHO cells, sequence (Q02153 whole entry): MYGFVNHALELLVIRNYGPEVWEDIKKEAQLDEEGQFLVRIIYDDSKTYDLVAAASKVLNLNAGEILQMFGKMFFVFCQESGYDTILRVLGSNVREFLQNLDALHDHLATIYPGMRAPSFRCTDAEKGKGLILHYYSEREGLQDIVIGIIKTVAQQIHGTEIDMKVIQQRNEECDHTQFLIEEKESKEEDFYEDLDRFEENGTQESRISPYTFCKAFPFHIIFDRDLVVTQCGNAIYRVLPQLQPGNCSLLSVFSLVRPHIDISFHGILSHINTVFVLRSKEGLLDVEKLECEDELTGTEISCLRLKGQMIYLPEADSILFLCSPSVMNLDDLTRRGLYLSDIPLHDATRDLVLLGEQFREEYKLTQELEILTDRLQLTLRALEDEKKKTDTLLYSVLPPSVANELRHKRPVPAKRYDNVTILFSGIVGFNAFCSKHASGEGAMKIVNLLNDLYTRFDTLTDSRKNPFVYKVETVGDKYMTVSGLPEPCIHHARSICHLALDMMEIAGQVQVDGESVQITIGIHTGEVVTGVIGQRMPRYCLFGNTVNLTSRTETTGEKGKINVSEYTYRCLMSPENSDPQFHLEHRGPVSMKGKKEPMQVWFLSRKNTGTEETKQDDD

Going from CCc1c(C(=O)O)cnn1-c1cccc(-c2cccc3c2C(Nc2ccc(C4CCN(C(=O)C5CC5)CC4)cc2C)CC3)n1 (single isomer, unassigned; (-)) [Example 10b, (−)-1-(6-(3-((4-(1-(Cyclopropanecarbonyl)piperidin-4-yl)-2-methylphenyl)amino)-2,3-dihydro-1H-inden-4-yl)pyridin-2-yl)-5-ethyl-1H-pyrazole-4-carboxylic Acid] to Cc1cc(C2CCN(C(=O)C3CCC3)CC2)ccc1NC1CCc2cccc(-c3cccc(-n4ncc(C(=O)O)c4C)n3)c21 (single isomer, unassigned; (-)) [Example 45b], the EC50 falls from 49 nM to 3.5 nM (14-fold). The second is the more potent here.

Compared with Cc1cc(C2CCN(C(=O)C3CC3)CC2)ccc1NC1COc2cccc(-c3cccc(-n4ncc(C(=O)O)c4C)n3)c21 (single isomer, unassigned; (-)) [Example 34b], Cc1cc(C2CCN(C(=O)[C@H](C)O)CC2)ccc1NC1COc2cccc(-c3cccc(-n4ncc(C(=O)O)c4C)n3)c21 (single isomer, unassigned; (-)) [Example 35b] is 4.4-fold higher in EC50: 3.9 nM for the first, 17 nM for the second.

Compared with Cc1cc(C2CCN(C(=O)C3CC3)CC2)ccc1CC1CCc2cccc(-c3cccc(-n4ncc(C(=O)O)c4C)n3)c21 (single isomer, unassigned; (-)) [Example 37. b). (−), (−)-1-(6-(3-(4-(1-(cyclopropanecarbonyl)piperidin-4-yl)-2-methylbenzyl)-2,3-dihydro-1H-inden-4-yl)pyridin-2-yl)-5-methyl-1H-pyrazole-4-carboxylic Acid], Cc1cc(C2CCN(C(=O)C3CC3)CC2)ccc1O[C@H]1CCc2cccc(-c3cccc(-n4ncc(C(=O)O)c4C)n3)c21 [Example 5-6] is lower in EC50: 6.3 nM for the first, no more than 0.5 nM for the second.

Going from CCc1cc(CC2CCc3cccc(-c4cccc(-n5ncc(C(=O)O)c5CC)n4)c32)ccc1C1CCN(C(=O)[C@H](C)O)CC1 (single isomer, unassigned; (-)) [Example 39. b). (−)] to CCc1cc(CC2CCc3cccc(-c4cccc(-n5ncc(C(=O)O)c5CC)n4)c32)ccc1C1CCN(C(=O)OC)CC1 (single isomer, unassigned; (-)) [Example 41. b). (−), (−)-5-ethyl-1-(6-(3-(3-ethyl-4-(1-(methoxycarbonyl)piperidin-4-yl)benzyl)-2,3-dihydro-1H-inden-4-yl)pyridin-2-yl)-1H-pyrazole-4-carboxylic acid], the EC50 rises from 1 nM to 18 nM (18-fold). The first is the more potent here.

Compared with CCc1c(C(=O)O)cnn1-c1cccc(-c2cccc3c2C(Cc2ccc(C4CCN(C(=O)OC)CC4)cc2C)CC3)n1 (single isomer, unassigned; (-)) [Example 42. b). (−), (−)-5-ethyl-1-(8-(3-(4-(1-(methoxycarbonyl)piperidin-4-yl)-2-methylbenzyl)-2,3-dihydro-1H-inden-4-yl)pyridin-2-yl)-1H-pyrazole-4-carboxylic acid], CCc1c(C(=O)O)cnn1-c1cccc(-c2cccc3c2[C@@H](Oc2ccc(C4CCN(C(=O)C5CC5)CC4)cc2C)CC3)n1 [Example 5-7] is lower in EC50: 93 nM for the first, no more than 0.5 nM for the second.

First: Cc1cc(C2CCN(C(=O)[C@H](C)O)CC2)ccc1NC1CCc2cccc(-c3cccc(-n4ncc(C(=O)O)c4C)n3)c21 (single isomer, unassigned; (-)) [Example 47b]
Second: Cc1cc(C2CCN(C(=O)C3CC3)CC2)ccc1NC1CCc2cccc(-c3cccc(-n4ncc(C(=O)O)c4C(F)(F)F)n3)c21 (single isomer, unassigned; (-)) [Example (−)-8. b), (−)-1-(6-(3-((4-(1-(cyclopropanecarbonyl)piperidin-4-yl)-2-methylphenyl)amino)-2,3-dihydro-1H-inden-4-yl)pyridin-2-yl)-5-(trifluoromethyl)-1H-pyrazole-4-carboxylic Acid]
The EC50 of the first is 2-fold lower: 27 nM for the first, 53 nM for the second. The first is the more potent here.

Going from CCc1nc(NC2CCc3cccc(-c4cccc(-n5ncc(C(=O)O)c5CC)n4)c32)ccc1C1CCN(C(=O)C2CC2)CC1 (single isomer, unassigned; (-)) [Example 63b, (−)-1-(6-(3-((5-(1-(Cyclopropanecarbonyl)piperidin-4-yl)-6-ethylpyridin-2-yl)amino)-2,3-dihydro-1H-inden-4-yl)pyridin-2-yl)-5-ethyl-1H-pyrazole-4-carboxylic Acid] to CCc1cc(O[C@H]2CCc3cccc(-c4cccc(-n5ncc(C(=O)O)c5CC)n4)c32)ccc1C1CCN(C(=O)C2CC2)CC1 [Example 5-9], the EC50 falls from 60 nM to no more than 0.5 nM.

First: Cc1cc(C2CCN(C(=O)C3CC3)CC2)ccc1OC1CCc2cccc(-c3cccc(-n4ncc(C(=O)O)c4C(F)(F)F)c3)c21 (single isomer, unassigned; (-)) [Example (−)-1. b), (−)-1-(3-(3-(4-(1-(cyclopropanecarbonyl)piperidin-4-yl)-2-methylphenoxy)-2,3-dihydro-1H-inden-4-yl)phenyl)-5-(trifluoromethyl)-1H-pyrazole-4-carboxylic acid]
Second: Cc1cc(C2CCN(C(=O)C3CC3)CC2)ccc1O[C@H]1CCc2cccc(-c3cccc(-n4ncc(C(=O)O)c4C)c3)c21 [Example 2, (+)-(S)-1-(3-(3-(4-(1-(Cyclopropanecarbonyl)piperidin-4-yl)-2-methylphenoxy)-2,3-dihydro-1H-inden-4-yl)phenyl)-6-methyl-1H-pyrazole-4-carboxylic Acid]
The EC50 of the first is 10-fold higher: 10 nM for the first, 1 nM for the second.

Going from Cc1cc2c(c(-c3cccc(-n4ncc(C(=O)O)c4C(F)(F)F)n3)c1)C(Oc1ccc3c(c1)CCN(Cc1ccccn1)C3)CC2 (stereo not shown) [Example 5-1] to O=C(O)c1cnn(-c2cccc(-c3cccc4c3N(Cc3ccc5c(c3)CCN(Cc3ccccn3)C5)CC4)n2)c1C(F)(F)F [Example 25, 1-(6-(1-((2-(Pyridin-2-ylmethyl)-1,2,3,4-tetrahydroisoquinolin-6-yl)methyl)indolin-7-yl)pyridin-2-yl)-5-(trifluromethyl)-1H-pyrazole-4-carboxylic Acid], the EC50 falls from 39 nM to 2.4 nM (16-fold). The second is the more potent here.

Going from Cc1cc2c(c(-c3cccc(-n4ncc(C(=O)O)c4C(F)(F)F)n3)c1)C(Oc1ccc(C3CCN(C(=O)C4CC4)CC3)cc1C)CC2 (stereo not shown) [Example 5-2] to CCc1cc(O[C@H]2CCc3cccc(-c4cccc(-n5ncc(C(=O)O)c5C(F)(F)F)n4)c32)ccc1C1CCN(C(=O)C2CC2)CC1 [Example 5-3], the EC50 falls from 1 nM to no more than 0.5 nM. The second is the more potent here.

Going from Cc1cc(C2CCN(CC(F)(F)F)CC2)ccc1O[C@H]1CCc2cccc(-c3cccc(-n4ncc(C(=O)O)c4C(F)(F)F)n3)c21 [Example 5-4] to CCc1c(C(=O)O)cnn1-c1cccc(-c2cccc3c2[C@@H](Oc2ccc(C4CCN(CC(F)(F)F)CC4)cc2C)CC3)n1 [Example 5-8], the EC50 falls from 2 nM to 1 nM (2-fold). The second is the more potent here.

Compared with Cc1cc(C2CCN(C(=O)C3CC3)CC2)ccc1O[C@H]1CCc2cccc(-c3cccc(-n4cc(C(=O)O)cn4)n3)c21 [Example 5-5], O=C(O)c1cnn(-c2cccc(-c3cccc4c3C(Nc3ccc(C5CCN(C(=O)C6CC6)CC5)cc3)CC4)n2)c1C(F)(F)F (stereo not shown) [Example 11-2] is 2.4-fold lower in EC50: 2.4 nM for the first, 1 nM for the second.

Compared with CCc1c(C(=O)O)cnn1-c1cccc(-c2cccc3c2C(Nc2ccc(C4CCN(CC(F)(F)F)CC4)cc2C)CC3)n1 (stereo not shown) [Example 11-3], CCc1cc(CN2CCc3cccc(-c4cccc(-n5ncc(C(=O)O)c5CC)n4)c32)ccc1C1CCN(CC(F)(F)F)CC1 [Example 16, 5-Ethyl-1-(6-(1-(3-ethyl-4-(1-(2,2,2-trifluoroethyl)piperidin-4-yl)benzyl)indolin-7-yl)pyridin-2-yl)-1H-pyrazole-4-carboxylic Acid] is 2.5-fold higher in EC50: 1.4 nM for the first, 3.5 nM for the second.

Compared with O=C(O)c1cnn(-c2cccc(-c3cccc4c3N(Cc3ccc(C5CCN(C(=O)C6CC6)CC5)cc3)CC4)n2)c1C(F)(F)F [Example 12, 1-(6-(1-(4-(1-(Cyclopropanecarbonyl)piperidin-4-yl)benzyl)indolin-7-yl)pyridin-2-yl)-5-(trifluoromethyl)-1H-pyrazole-4-carboxylic Acid], CCc1cc(CN2CCc3cccc(-c4cccc(-n5ncc(C(=O)O)c5C(F)(F)F)n4)c32)ccc1C1CCN(C(=O)C2CC2)CC1 [Example 13] is lower in EC50: 1 nM for the first, no more than 0.5 nM for the second. The second is the more potent here.

Going from CCc1cc(CN2CCc3cccc(-c4cccc(-n5ncc(C(=O)O)c5CC)n4)c32)ccc1C1CCN(C(=O)C2CC2)CC1 [Example 14, 1-(6-(1-(4-(1-(Cyclopropanecarbonyl)piperidin-4-yl)-3-ethylbenzyl)indolin-7-yl)pyridin-2-yl)-5-ethyl-1H-pyrazole-4-carboxylic Acid] to CCc1cc(CN2CC(C)(C)c3cccc(-c4cccc(-n5ncc(C(=O)O)c5CC)n4)c32)ccc1C1CCN(C(=O)C2CC2)CC1 [Example 23], the EC50 rises from no more than 0.5 nM to 2 nM. The first is the more potent here.

First: CCc1cc(CN2CCc3cccc(-c4cccc(-n5ncc(C(=O)O)c5C(F)(F)F)n4)c32)ccc1C1CCN(CC(F)(F)F)CC1 [Example 15]
Second: CCc1c(C(=O)O)cnn1-c1cccc(-c2cccc3c2N(Cc2ccc(C4CCN(C(=O)C5CC5)CC4)cc2C)CC3)n1 [Example 21-2, 1-(6-(1-(4-(1-(Cyclopropanecarbonyl)piperidin-4-yl)-2-methylbenzyl)indolin-7-yl)pyridin-2-yl)-5-ethyl-1H-pyrazole-4-carboxylic acid]
The EC50 of the first is higher: 1.5 nM for the first, no more than 0.5 nM for the second.

Compared with CCc1c(C(=O)O)cnn1-c1cccc(-c2cccc3c2N(Cc2ccc(C4CCN(C(=O)[C@H](C)O)CC4)cc2C)CC3)n1 [Example 18, (S)-5-Ethyl-1-(6-(1-(4-(1-(2-hydroxypropanoyl)piperidin-4-yl)-2-methylbenzyl)indolin-7-yl)pyridin-2-yl)-1H-pyrazole-4-carboxylic Acid], Cc1cc(C2CCN(C3CC3)CC2)ccc1CN1CCc2cccc(-c3cccc(-n4ncc(C(=O)O)c4C)n3)c21 [Example 24, 1-(6-(1-(4-(1-Cyclopropylpiperidin-4-yl)-2-methylbenzyl)indolin-7-yl)pyridin-2-yl)-5-methyl-1H-pyrazole-4-carboxylic Acid] is 5.6-fold higher in EC50: 1.4 nM for the first, 7.9 nM for the second.
